Active and inactive are the calls of the source. No cut-off for these calls is given here.
Legend:
[1] = molecular target: T1, von Hippel-Lindau disease tumor suppressor/Dual specificity mitogen-activated protein kinase kinase 2/Dual specificity mitogen-activated protein kinase kinase 1 (Homo sapiens) (UniProt P36507+Q02750+P40337); assay: Protac activity against VHL/MEK1/2 in human UACC257 cells harboring with BRAF V600E variant assessed as reduction in phosphorylation of ERK at T202/Y204 residues after 24 hrs by Western blot analysis; format: cell-based
T1 sequence (P36507 whole entry, looked up): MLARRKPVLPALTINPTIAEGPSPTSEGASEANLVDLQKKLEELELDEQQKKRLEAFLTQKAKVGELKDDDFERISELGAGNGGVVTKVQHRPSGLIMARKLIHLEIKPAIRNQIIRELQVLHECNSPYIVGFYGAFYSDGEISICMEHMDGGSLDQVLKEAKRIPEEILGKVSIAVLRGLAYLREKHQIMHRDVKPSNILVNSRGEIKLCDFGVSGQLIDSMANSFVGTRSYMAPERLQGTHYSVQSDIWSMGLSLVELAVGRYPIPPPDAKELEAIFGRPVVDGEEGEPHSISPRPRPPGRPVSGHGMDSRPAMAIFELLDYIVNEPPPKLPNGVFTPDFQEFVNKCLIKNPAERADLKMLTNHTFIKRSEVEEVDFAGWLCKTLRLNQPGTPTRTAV
T1 sequence (P40337 whole entry, looked up): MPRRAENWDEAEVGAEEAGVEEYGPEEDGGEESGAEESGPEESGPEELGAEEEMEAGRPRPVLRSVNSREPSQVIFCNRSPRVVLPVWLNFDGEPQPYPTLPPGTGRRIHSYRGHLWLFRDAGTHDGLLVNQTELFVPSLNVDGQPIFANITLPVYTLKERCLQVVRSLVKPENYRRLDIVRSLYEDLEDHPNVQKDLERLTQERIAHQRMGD
T1 sequence (Q02750 whole entry, looked up): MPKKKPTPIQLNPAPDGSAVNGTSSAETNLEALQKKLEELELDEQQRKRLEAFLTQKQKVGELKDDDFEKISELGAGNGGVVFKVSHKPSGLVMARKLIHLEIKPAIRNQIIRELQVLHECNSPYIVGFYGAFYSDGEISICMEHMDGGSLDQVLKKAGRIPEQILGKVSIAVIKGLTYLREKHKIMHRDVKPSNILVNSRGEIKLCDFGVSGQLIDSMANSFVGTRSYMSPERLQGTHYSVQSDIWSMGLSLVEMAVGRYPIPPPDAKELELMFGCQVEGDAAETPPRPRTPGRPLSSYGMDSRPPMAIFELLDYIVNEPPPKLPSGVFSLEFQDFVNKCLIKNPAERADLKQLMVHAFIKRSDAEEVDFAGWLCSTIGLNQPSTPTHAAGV

[2] = system: SK-MEL-28; assay: Inhibition of colony formation in human SK-MEL-28 cells at 10 to 100 nM supplemented with fresh medium containing compound every 3 days for 14 days by crystal violet staining based assay; format: functional, cell-based
[3] = molecular target: T1, von Hippel-Lindau disease tumor suppressor/Dual specificity mitogen-activated protein kinase kinase 2/Dual specificity mitogen-activated protein kinase kinase 1 (Homo sapiens); assay: Protac activity against VHL/MEK1/2 in human SK-MEL-28 cells harboring with BRAF V600E variant assessed as reduction in phosphorylation of ERK at T202/Y204 residues at 0.1 to 0.3 uM by Western blot analysis; format: cell-based; settings: TDE = time-dependent effect
[4] = molecular target: T2, von Hippel-Lindau disease tumor suppressor/Dual specificity mitogen-activated protein kinase kinase 2 (Homo sapiens) (UniProt P36507+P40337); assay: Protac activity against VHL/MEK2 in human COLO205 cells harboring with BRAF V600E variant assessed as degradation of MEK2 at 3 to 5 uM after 24 hrs by Western blot analysis; format: cell-based
T2 sequence (P36507 whole entry, looked up): as the sequence (P36507 whole entry, looked up) above
T2 sequence (P40337 whole entry, looked up): as the sequence (P40337 whole entry, looked up) above

[5] = molecular target: T3, von Hippel-Lindau disease tumor suppressor/Dual specificity mitogen-activated protein kinase kinase 1 (Homo sapiens) (UniProt Q02750+P40337); assay: Protac activity against VHL/MEK1 in human SK-MEL-28 cells harboring with BRAF V600E variant assessed as degradation of MEK1 at 0.1 to 0.3 uM after 4 hrs by Western blot analysis; format: cell-based
T3 sequence (P40337 whole entry, looked up): as above
T3 sequence (Q02750 whole entry, looked up): as the sequence (Q02750 whole entry, looked up) above

[6] = molecular target: T1, von Hippel-Lindau disease tumor suppressor/Dual specificity mitogen-activated protein kinase kinase 2/Dual specificity mitogen-activated protein kinase kinase 1 (Homo sapiens); assay: Protac activity against VHL/MEK1/2 in human COLO205 cells harboring with BRAF V600E variant assessed as reduction in phosphorylation of ERK at T202/Y204 residues after 24 hrs by Western blot analysis; format: cell-based
[7] = molecular target: T3, von Hippel-Lindau disease tumor suppressor/Dual specificity mitogen-activated protein kinase kinase 1 (Homo sapiens); assay: (§1) Protac activity against VHL/MEK1 in human SK-MEL-28 cells harboring with BRAF V600E variant assessed as degradation of MEK1 by measuring MEK1 protein level at 0.3 uM pretreated with MEK1/2 inhibitor, PD0325901 for 2 hrs followed by incubation with compound for 10 hrs by Western blot analysis; format: cell-based
[8] = molecular target: T2, von Hippel-Lindau disease tumor suppressor/Dual specificity mitogen-activated protein kinase kinase 2 (Homo sapiens); assay: Protac activity against VHL/MEK2 in human HT-29 cells harboring with BRAF V600E variant assessed as degradation of MEK2 at 0.1 to 0.3 uM by Western blot analysis; format: cell-based; settings: TDE = time-dependent effect
[9] = molecular target: T1, von Hippel-Lindau disease tumor suppressor/Dual specificity mitogen-activated protein kinase kinase 2/Dual specificity mitogen-activated protein kinase kinase 1 (Homo sapiens); assay: Protac activity against VHL/MEK1/2 in human HT-29 cells harboring with BRAF V600E variant assessed as phosphorylation of ERK at T202/Y204 residues at 0.3 uM pretreated with VHL ligand, VH 032 for 2 hrs followed by incubation with compound for 10 hrs by Western blot analysis; format: cell-based
[10] = molecular target: T1, von Hippel-Lindau disease tumor suppressor/Dual specificity mitogen-activated protein kinase kinase 2/Dual specificity mitogen-activated protein kinase kinase 1 (Homo sapiens); assay: Protac activity against VHL/MEK1/2 in human SK-MEL-28 cells harboring with BRAF V600E variant assessed as phosphorylation of ERK at T202/Y204 residues at 0.3 uM pretreated with MEK1/2 inhibitor, PD0325901 for 2 hrs followed by incubation with compound for 10 hrs by Western blot analysis; format: cell-based
[11] = molecular target: Dual specificity mitogen-activated protein kinase kinase 1 (Homo sapiens, UniProt Q02750); assay: Inhibition of recombinant full length human His-tagged MEK1 expressed in baculovirus expression system using ERK K52R dead variant as substrate preincubated for 20 mins followed by incubation with 33P-ATP addition for 2 hrs by hotspot kinase assay
Chain of Dual specificity mitogen-activated protein kinase kinase 1 (Q02750 whole entry): as the sequence (Q02750 whole entry, looked up) above

[12] = molecular target: T1, von Hippel-Lindau disease tumor suppressor/Dual specificity mitogen-activated protein kinase kinase 2/Dual specificity mitogen-activated protein kinase kinase 1 (Homo sapiens); assay: Protac activity against VHL/MEK1/2 in human SK-MEL-28 cells harboring with BRAF V600E variant assessed as reduction in phosphorylation of MEK at S218/222 residues after 24 hrs by Western blot analysis; format: cell-based
[13] = molecular target: von Hippel-Lindau disease tumor suppressor/Dual specificity mitogen-activated protein kinase kinase 1 (Homo sapiens, UniProt Q02750+P40337, V600E); assay: (§2) Protac activity against VHL/MEK1 in human SK-MEL-28 cells harboring BRAF V600E variant assessed as degradation of MEK1 after 24 hrs by Western blot analysis; format: cell-based
Chain of von Hippel-Lindau disease tumor suppressor/Dual specificity mitogen-activated protein kinase kinase 1 (P40337 whole entry, looked up, stated change not applied): as the sequence (P40337 whole entry, looked up) above
Chain of von Hippel-Lindau disease tumor suppressor/Dual specificity mitogen-activated protein kinase kinase 1 (Q02750 whole entry, looked up, stated change not applied): as the sequence (Q02750 whole entry, looked up) above

[14] = molecular target: T3, von Hippel-Lindau disease tumor suppressor/Dual specificity mitogen-activated protein kinase kinase 1 (Homo sapiens); assay: as §2; format: cell-based
[15] = molecular target: Dual specificity mitogen-activated protein kinase kinase 2 (Homo sapiens, UniProt P36507); assay: Inhibition of recombinant full length human His-tagged MEK2 expressed in baculovirus expression system using ERK K52R dead variant as substrate preincubated for 20 mins followed by incubation with 33P-ATP for 2 hrs by hotspot kinase assay
Chain of Dual specificity mitogen-activated protein kinase kinase 2 (P36507 whole entry): as the sequence (P36507 whole entry, looked up) above

[16] = molecular target: T3, von Hippel-Lindau disease tumor suppressor/Dual specificity mitogen-activated protein kinase kinase 1 (Homo sapiens); assay: Protac activity against VHL/MEK1 in human HT-29 cells harboring with BRAF V600E variant assessed as degradation of MEK1 by measuring reduction in MEK1 protein level at 0.3 uM after 4 hrs by Western blot analysis relative to control; format: cell-based; design: scale not given: the % may be the effect or the level left
[17] = molecular target: T3, von Hippel-Lindau disease tumor suppressor/Dual specificity mitogen-activated protein kinase kinase 1 (Homo sapiens); assay: Protac activity against VHL/MEK1 in human SK-MEL-28 cells harboring with BRAF V600E variant assessed as degradation of MEK1 by measuring reduction in MEK1 protein level at 0.3 uM after 24 hrs by Western blot analysis relative to control; format: cell-based; design: scale not given: the % may be the effect or the level left
[18] = molecular target: T1, von Hippel-Lindau disease tumor suppressor/Dual specificity mitogen-activated protein kinase kinase 2/Dual specificity mitogen-activated protein kinase kinase 1 (Homo sapiens); assay: Protac activity against VHL/MEK1/2 in human HT-29 cells harboring with BRAF V600E variant assessed as reduction in phosphorylation of ERK at T202/Y204 residues at 0.3 uM after 24 to 144 hrs by Western blot analysis; format: cell-based
[19] = molecular target: T1, von Hippel-Lindau disease tumor suppressor/Dual specificity mitogen-activated protein kinase kinase 2/Dual specificity mitogen-activated protein kinase kinase 1 (Homo sapiens); assay: Protac activity against VHL/MEK1/2 in human HT-29 cells harboring with BRAF V600E variant assessed as reduction in phosphorylation of MEK at S218/222 residues at 0.3 uM incubated for 6 days by Western blot analysis; format: cell-based
[20] = molecular target: T2, von Hippel-Lindau disease tumor suppressor/Dual specificity mitogen-activated protein kinase kinase 2 (Homo sapiens); assay: (§3) Protac activity against VHL/MEK2 in human HT-29 cells harboring BRAF V600E variant assessed as degradation of MEK2 after 24 hrs by Western blot analysis; format: cell-based
[21] = molecular target: T4, von Hippel-Lindau disease tumor suppressor/Dual specificity mitogen-activated protein kinase kinase 2 (Homo sapiens, UniProt P36507+P40337, V600E); assay: as §3; format: cell-based
T4 sequence (P36507 whole entry, looked up, stated change not applied): as the sequence (P36507 whole entry, looked up) above
T4 sequence (P40337 whole entry, looked up, stated change not applied): as the sequence (P40337 whole entry, looked up) above

[22] = molecular target: T2, von Hippel-Lindau disease tumor suppressor/Dual specificity mitogen-activated protein kinase kinase 2 (Homo sapiens); assay: (§4) Protac activity against VHL/MEK2 in human SK-MEL-28 cells harboring BRAF V600E variant assessed as degradation of MEK2 after 24 hrs by Western blot analysis; format: cell-based
[23] = molecular target: T4, von Hippel-Lindau disease tumor suppressor/Dual specificity mitogen-activated protein kinase kinase 2; assay: as §4; format: cell-based
[24] = molecular target: T3, von Hippel-Lindau disease tumor suppressor/Dual specificity mitogen-activated protein kinase kinase 1 (Homo sapiens); assay: Protac activity against VHL/MEK1 in human UACC257 cells harboring with BRAF V600E variant assessed as degradation of MEK1 at 3 to 5 uM uM after 24 hrs by Western blot analysis; format: cell-based
[25] = molecular target: T3, von Hippel-Lindau disease tumor suppressor/Dual specificity mitogen-activated protein kinase kinase 1 (Homo sapiens); assay: Protac activity against VHL/MEK1 in human HT-29 cells harboring with BRAF V600E variant assessed as degradation of MEK1 at 0.1 to 0.3 uM after 4 hrs by Western blot analysis; format: cell-based
[26] = molecular target: T3, von Hippel-Lindau disease tumor suppressor/Dual specificity mitogen-activated protein kinase kinase 1 (Homo sapiens); assay: as §1, with “NEDD8-activating enzyme” for “MEK1/2”, “MLN4924” for “PD0325901”; format: cell-based
[27] = molecular target: T1, von Hippel-Lindau disease tumor suppressor/Dual specificity mitogen-activated protein kinase kinase 2/Dual specificity mitogen-activated protein kinase kinase 1 (Homo sapiens); assay: Protac activity against VHL/MEK1/2 in human SK-MEL-28 cells harboring with BRAF V600E variant assessed as phosphorylation of ERK at T202/Y204 residues at 0.3 uM pretreated with VHL ligand, VH 032 for 2 hrs followed by incubation with compound for 10 hrs by Western blot analysis; format: cell-based

Cc1ncsc1-c1ccc([C@H](C)NC(=O)[C@@H]2C[C@@H](O)CN2C(=O)[C@@H](NC(=O)CCCCCCCCCCNCCCONC(=O)c2ccc(F)c(F)c2Nc2ccc(I)cc2F)C(C)(C)C)cc1
Activity [1]: Dose-dependent effect
inhibition [2]: Active
Activity [3]: Tde
Activity [4]: Active
Activity [5]: Active
Activity [6]: Dose-dependent effect
Activity [7]: inactive
Activity [8]: Tde
Activity [9]: inactive
Activity [10]: inactive
IC50 [11]: 1500 nM
Activity [12]: Dose-dependent effect
DC50 [13]: 31 nM
Activity [14]: Dose-dependent effect
IC50 [15]: 590 nM
Activity [16]: > 50%
Activity [17]: > 90%
Activity [18]: Active
Activity [19]: Active
Activity [20]: Dose-dependent effect
DC50 [21]: 17 nM
Activity [22]: Dose-dependent effect
DC50 [23]: 9.3 nM
Activity [24]: Active
Activity [25]: Active
Activity [26]: inactive
Activity [27]: inactive

Reference: ChEMBL document CHEMBL4321854, “Discovery of a First-in-Class Mitogen-Activated Protein Kinase Kinase 1/2 Degrader” (J Med Chem, 2019)
